Experiment [1] has as its system HSCs. In words: HSC proliferation and mobilization in mice treated with ERα ligands. The note with it: E2: male mice and non-pregnant females. Type of experiment: in vivo. From the text:
However, the mechanism by which E2 and 27HC, two endogenous ERα ligands, differentially regulate HSCs is unknown. […] E2 levels increase during pregnancy, when extramedullary hematopoiesis (EMH) is induced to increase the production of red blood cells. In addition to increased HSC proliferation, EMH during pregnancy requires increased HSC mobilization, which the present inventors found to also depend on ERα in HSCs. […] Thus, through their differential effects on HSC behavior in vivo—E2 and 27HC act in concert to promote hematopoiesis during pregnancy.

The subject of experiment [2] is colony-forming HSPCs. The experiment can be described thus: Mobilization of colony-forming HSPCs into the peripheral blood of mice (CFU count of PBMCs in methylcellulose culture). In kind it is in vivo, C57BL/6 mice. The procedure:
To test whether co-administration of 27HC with G-CSF plus another clinically-used HSC mobilizing agent, AMD3100 (a CXCR4 chemokine receptor antagonist that is also known as plerixafor), further enhances HSC mobilization. Two-month-old C57BL/6 mice were treated with a single agent alone, a combination of two agents (27HC+AMD3100, or G-CSF+AMD3100), all three agents combined, or vehicle alone (2-hydroxypropyl-β-cyclodextrin for 27HC, PBS for G-CSF, and PBS for AMD3100).
(§1) Mice were treated with 27HC (10 mg/kg/day) and/or G-CSF (250 μg/kg/day) for 4 days and then treated with AMD3100 (5 mg/kg) one hour before the peripheral blood collection (FIG. 1). Peripheral blood mononuclear cells (PBMCs) were isolated by density gradient centrifugation, and were seeded in the methylcellulose culture medium. Colonies were counted after 12 days of culture.
(§2) This experiment was performed as described in Example 1, except, clotrimazole (50 mg/kg/day) was used instead of 27HC.

For experiment [3], the system named is HSCs. The note with it: recently demonstrated; cited from earlier work.
The test system of experiment [4] is colony-forming HSPCs. The experiment can be described thus: Mobilization of colony-forming HSPCs into the peripheral blood of mice (CFU count of PBMCs in methylcellulose culture). In kind it is in vivo, C57BL/6 mice. The note with it: 50 mg/kg/day oral gavage for 4 days, AMD3100 s.c. one hour before analyses, no G-CSF; trends; FIGS. 5A, 5B.
The subject of experiment [5] is colony-forming HSPCs. In words: Mobilization of colony-forming HSPCs into the peripheral blood of sickle cell model mice (CFU count). In kind it is in vivo, sickle cell model mice (Townes model mice). The note with it: clotrimazole 50 mg/kg/day i.p. for 4 days, AMD3100 s.c. one hour before analyses, FIGS. 4A, 4B. The procedure:
as §1, §2

The test system of experiment [6] is colony-forming HSPCs. The note with it: AMD3100 s.c. injection; cited from earlier work.

Results on six compounds are retold here after patent US20240148710A1, “INHIBITORS OF CYTOCHROME P450 FAMILY 7 SUBFAMILY B MEMBER 1 (CYP7B1) FOR USE IN MOBILIZATION OF HEMATOPOIETIC STEM AND PROGENITOR CELLS” (priority 2022, published 2024).

Entries after “also recorded” stand apart in the source; their conditions may differ.

In the case of `C[C@@H](CO)CCC[C@@H](C)[C@H]1CC[C@H]2[C@@H]3CC=C4C[C@@H](O)CC[C@]4(C)[C@H]3CC[C@]12C` [27HC, 27-hydroxycholesterol], in the experiment on HSCs [1], the “Effect of administration on HSC proliferation and mobilization (found by the present inventors)” value is “induces HSC mobilization (but not proliferation)”. In the experiment on colony-forming HSPCs [2] (27HC 10 mg/kg/day and G-CSF 250 μg/kg/day s.c. for 4 days, AMD3100 5 mg/kg one hour before collection, FIGS. 2C, 2D), the “CFUs (including CFU-gmEM) in the peripheral blood, three-agent combination with G-CSF and AMD3100 versus G-CSF and AMD3100” value is “significantly more CFUs, including CFU-gmEM, than the two-agent combination treatment with G-CSF and AMD3100; also recorded: mobilized more colony-forming HSPCs as compared to a single agent alone or a combination of two agents”. Moreover, the “CFUs in the peripheral blood, two-agent combination with AMD3100 versus AMD3100 single agent” value in the experiment with colony-forming HSPCs [2] (27HC 10 mg/kg/day s.c. for 4 days, AMD3100 5 mg/kg s.c. one hour before blood collection, FIGS. 2A, 2B) is “significantly more CFUs than the AMD3100 single-agent treatment; also recorded: mobilized colony-forming HSPCs significantly more than AMD3100 alone”. For the same compound, the “HSC mobilization on treating mice with 27HC” value with colony-forming HSPCs [2] (FIG. 2) is “promotes HSC mobilization”. In the experiment with HSCs [3], the “Effect of treatment of mice on HSC proliferation and mobilization” value is on record as “induces ERα-dependent HSC mobilization but not proliferation”.

Regarding `CC(C)(C(=O)c1cccnc1)c1cccnc1` [metyrapone], in the experiment with colony-forming HSPCs [4], the “CFUs (including CFU-gmEM) in the peripheral blood, two-agent combination with AMD3100 versus AMD3100 single agent” value is recorded as “generated more CFUs, including CFU-gmEM, than the single-agent AMD3100 treatment”.

For the compound `C[C@@H](c1ncncc1F)[C@](O)(Cn1cncn1)c1ccc(F)cc1F` [voriconazole], in the experiment on colony-forming HSPCs [4], the “CFUs (including CFU-gmEM) in the peripheral blood, two-agent combination with AMD3100 versus AMD3100 single agent” value is given as “generated more CFUs, including CFU-gmEM, than the single-agent AMD3100 treatment”.

Turning to `C[C@]12CC[C@@H]3c4ccc(O)cc4CC[C@H]3[C@@H]1CC[C@@H]2O` [E2, 17β-estradiol], the “Effect of administration on HSC proliferation and mobilization (found by the present inventors)” value with HSCs [1] is recorded as “induces HSC proliferation but not mobilization”. In the experiment with HSCs [3], the “Effect of treatment of mice on HSC proliferation and mobilization” value was “induces HSC proliferation but not mobilization”.

In the case of `Clc1ccccc1C(c1ccccc1)(c1ccccc1)n1ccnc1` [clotrimazole], the “CFUs (including CFU-gmEM) in the peripheral blood, two-agent combination with AMD3100 versus AMD3100 single agent” value is on record as “synergistic effects with the single-agent AMD3100 treatment” in the experiment on colony-forming HSPCs [4] and “significantly more CFUs, including CFU-gmEM, than the single-agent AMD3100 treatment” in the experiment on colony-forming HSPCs [5]. Also, the “CFUs (including CFU-gmEM) in the peripheral blood, three-agent combination with G-CSF and AMD3100 versus G-CSF and AMD3100” value in the experiment with colony-forming HSPCs [2] (clotrimazole 50 mg/kg/day i.p. for 4 days, G-CSF s.c. for 4 days, AMD3100 one hour before analyses, FIGS. 3C, 3D) was “more CFUs, including CFU-gmEM, than the two-agent combination treatment with G-CSF and AMD3100”. Also, the “CFUs in the peripheral blood, two-agent combination with AMD3100 versus AMD3100 single agent” value in the experiment on colony-forming HSPCs [2] (clotrimazole 50 mg/kg/day i.p., AMD3100 s.c. one hour before analyses, FIGS. 3A, 3B) is reported as “significantly more CFUs than the single-agent AMD3100 treatment”.

On to `c1cc(CN2CCCNCCNCCCNCC2)ccc1CN1CCCNCCNCCCNCC1` [AMD3100], for which, in the experiment with colony-forming HSPCs [6], the “Time of peak mobilization of HSCs after AMD3100 injection” value is “one hour post administration”.
